Consider 11 compounds from ChEMBL document CHEMBL1201862, “PubChem BioAssay data set” (2004).

Assay [1] can be described thus: Luminescence Cell-Based Dose Response to Identify Activators of 5'UTR Stem-Loop Driven Prion Protein mRNA Translation in H4-C Neuroglioblastoma Cells. [Related pubchem assays: 1829 (Project Summary), 1814 (Primary HTS)]. The class given is functional.
A short description of assay [2]: Luminescence Cell-Based Dose Response HTS to Identify Activators of Luciferase Translation or Activity in H4 […] Cells. [Related pubchem assays: 1829 (Project Summary), 1814 (Primary HTS)]. The class given is functional.
Assay [3] in a line: Luminescence Cell-Based Dose Confirmation to Identify Activators of 5'UTR Stem-Loop Driven Alpha-Synuclein mRNA Translation in H4 Neuroglioblastoma Cells. [Related pubchem assays: 1829 (Project Summary), 1814 (Primary HTS)]. The class given is functional.
Assay [4] is described as follows: Luminescence Cell-Based Dose Response to Identify Activators of Luciferase Translation or Activity in H4-C Neuroglioblastoma Cells. [Related pubchem assays: 1829 (Project Summary), 1814 (Primary HTS)]. The class given is functional.
Assay [5] deals with T1, Histone-lysine N-methyltransferase NSD2 (Homo sapiens, UniProt O96028).
T1 sequence (O96028 whole entry): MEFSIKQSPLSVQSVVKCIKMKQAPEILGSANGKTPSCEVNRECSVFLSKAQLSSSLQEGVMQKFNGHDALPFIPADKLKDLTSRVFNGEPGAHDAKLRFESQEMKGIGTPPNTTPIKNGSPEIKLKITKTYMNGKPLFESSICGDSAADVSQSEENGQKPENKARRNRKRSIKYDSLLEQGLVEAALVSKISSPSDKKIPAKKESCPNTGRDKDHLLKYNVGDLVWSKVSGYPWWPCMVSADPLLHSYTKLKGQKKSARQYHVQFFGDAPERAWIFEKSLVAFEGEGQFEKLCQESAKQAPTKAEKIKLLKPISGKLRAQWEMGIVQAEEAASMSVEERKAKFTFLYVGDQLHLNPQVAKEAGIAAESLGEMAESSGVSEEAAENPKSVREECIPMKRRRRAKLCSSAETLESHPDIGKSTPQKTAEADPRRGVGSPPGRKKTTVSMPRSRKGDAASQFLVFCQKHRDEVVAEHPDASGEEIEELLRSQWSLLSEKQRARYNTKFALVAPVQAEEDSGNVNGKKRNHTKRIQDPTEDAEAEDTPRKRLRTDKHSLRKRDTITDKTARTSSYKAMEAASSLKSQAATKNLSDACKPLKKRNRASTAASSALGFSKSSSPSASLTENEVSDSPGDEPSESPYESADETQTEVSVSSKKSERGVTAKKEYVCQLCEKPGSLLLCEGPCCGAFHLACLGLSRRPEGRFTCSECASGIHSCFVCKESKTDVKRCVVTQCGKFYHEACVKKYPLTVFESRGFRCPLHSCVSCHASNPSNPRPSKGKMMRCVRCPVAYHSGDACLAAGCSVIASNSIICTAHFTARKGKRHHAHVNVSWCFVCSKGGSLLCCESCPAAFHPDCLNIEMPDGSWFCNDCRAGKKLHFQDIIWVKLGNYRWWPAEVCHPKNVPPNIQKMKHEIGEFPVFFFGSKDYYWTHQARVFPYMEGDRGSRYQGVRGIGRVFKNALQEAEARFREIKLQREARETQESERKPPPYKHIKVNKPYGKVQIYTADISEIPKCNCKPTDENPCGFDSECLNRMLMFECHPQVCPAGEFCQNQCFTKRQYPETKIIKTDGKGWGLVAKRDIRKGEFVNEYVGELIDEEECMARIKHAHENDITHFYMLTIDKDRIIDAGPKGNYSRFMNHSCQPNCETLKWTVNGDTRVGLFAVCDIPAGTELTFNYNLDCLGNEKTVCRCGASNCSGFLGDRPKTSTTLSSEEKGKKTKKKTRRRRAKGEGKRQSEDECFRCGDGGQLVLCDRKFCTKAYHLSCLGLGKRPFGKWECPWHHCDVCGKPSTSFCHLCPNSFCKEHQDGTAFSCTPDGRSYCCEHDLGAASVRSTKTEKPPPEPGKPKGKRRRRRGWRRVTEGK
In kind it is biochemical.

For assay [6], the target named is Transthyretin (Homo sapiens, UniProt P02766). In words: Luminescence-based cell-based high throughput dose response assay to identify activators of Transthyretin (TTR) transcription. The class given is functional.
Assay [7] in a line: Trypanosoma cruzi growth suppression in host cells – NIH3T3 host cells, beta-gal luminescence, confirmation (AID 2044).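 Note: intracellular parasites grown in NIH/3T3 mouse fibroblasts as host cells; luminescent beta-galactosidase reporter signal from transgenic T. cruzi replicating inside host cells; inhibitors lower the luminescence signal.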 In kind it is functional, cell-based.
Assay [8] in a line: cells.
Assay [9] in a line: NIH3T3 cell viability loss – ATP luminescence, mouse fibroblasts, counter-screen, dose response (AID 2010).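 Note: cells exposed to compound for about 90 hours before reading.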 In kind it is functional, cell-based. (In general: Counterscreens check selectivity or assay interference.)
Assay [10] concerns the target T2, Ubiquitin-conjugating enzyme E2 N (Homo sapiens, UniProt P61088).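 Note: Dose-response confirmation in a TR-FRET assay detecting UBC13-driven polyubiquitin chain formation, inhibition measured.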
T2 sequence (P61088 whole entry): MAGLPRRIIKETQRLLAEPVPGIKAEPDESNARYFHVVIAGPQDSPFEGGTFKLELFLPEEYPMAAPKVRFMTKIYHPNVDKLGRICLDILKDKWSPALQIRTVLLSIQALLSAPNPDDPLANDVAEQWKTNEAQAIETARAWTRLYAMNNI
The class given is functional.

For assay [11], the target named is E3 ubiquitin-protein ligase Mdm2 (Homo sapiens, UniProt Q00987). In words: MDM2-luc reporter signal enhancers, multi-concentration potency testing, MDM2 ubiquitin-protein ligase inhibitor program, whole-cell format, luminescence detection, 384-well microplate (AID 1394).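 Note: MDM2 E3 inhibitors raise luminescence so EC50 is for signal enhancement.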 In kind it is functional.
Chain of E3 ubiquitin-protein ligase Mdm2 (Q00987 whole entry): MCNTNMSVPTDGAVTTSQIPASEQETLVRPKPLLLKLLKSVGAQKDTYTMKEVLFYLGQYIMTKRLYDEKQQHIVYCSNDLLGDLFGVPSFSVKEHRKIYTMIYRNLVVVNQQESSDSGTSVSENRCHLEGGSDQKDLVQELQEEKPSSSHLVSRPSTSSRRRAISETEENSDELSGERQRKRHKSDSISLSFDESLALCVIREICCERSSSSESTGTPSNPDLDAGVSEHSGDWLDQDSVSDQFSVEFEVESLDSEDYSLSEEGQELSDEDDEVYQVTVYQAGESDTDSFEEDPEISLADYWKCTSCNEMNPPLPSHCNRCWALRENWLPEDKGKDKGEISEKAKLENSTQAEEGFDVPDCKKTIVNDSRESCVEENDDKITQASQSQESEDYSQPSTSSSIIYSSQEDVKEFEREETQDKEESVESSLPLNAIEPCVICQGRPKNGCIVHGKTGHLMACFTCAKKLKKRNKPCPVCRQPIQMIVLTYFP
Assay [12] deals with T3, Short transient receptor potential channel 4 (Mus musculus, UniProt Q9QUQ5).
T3 sequence (Q9QUQ5 whole entry): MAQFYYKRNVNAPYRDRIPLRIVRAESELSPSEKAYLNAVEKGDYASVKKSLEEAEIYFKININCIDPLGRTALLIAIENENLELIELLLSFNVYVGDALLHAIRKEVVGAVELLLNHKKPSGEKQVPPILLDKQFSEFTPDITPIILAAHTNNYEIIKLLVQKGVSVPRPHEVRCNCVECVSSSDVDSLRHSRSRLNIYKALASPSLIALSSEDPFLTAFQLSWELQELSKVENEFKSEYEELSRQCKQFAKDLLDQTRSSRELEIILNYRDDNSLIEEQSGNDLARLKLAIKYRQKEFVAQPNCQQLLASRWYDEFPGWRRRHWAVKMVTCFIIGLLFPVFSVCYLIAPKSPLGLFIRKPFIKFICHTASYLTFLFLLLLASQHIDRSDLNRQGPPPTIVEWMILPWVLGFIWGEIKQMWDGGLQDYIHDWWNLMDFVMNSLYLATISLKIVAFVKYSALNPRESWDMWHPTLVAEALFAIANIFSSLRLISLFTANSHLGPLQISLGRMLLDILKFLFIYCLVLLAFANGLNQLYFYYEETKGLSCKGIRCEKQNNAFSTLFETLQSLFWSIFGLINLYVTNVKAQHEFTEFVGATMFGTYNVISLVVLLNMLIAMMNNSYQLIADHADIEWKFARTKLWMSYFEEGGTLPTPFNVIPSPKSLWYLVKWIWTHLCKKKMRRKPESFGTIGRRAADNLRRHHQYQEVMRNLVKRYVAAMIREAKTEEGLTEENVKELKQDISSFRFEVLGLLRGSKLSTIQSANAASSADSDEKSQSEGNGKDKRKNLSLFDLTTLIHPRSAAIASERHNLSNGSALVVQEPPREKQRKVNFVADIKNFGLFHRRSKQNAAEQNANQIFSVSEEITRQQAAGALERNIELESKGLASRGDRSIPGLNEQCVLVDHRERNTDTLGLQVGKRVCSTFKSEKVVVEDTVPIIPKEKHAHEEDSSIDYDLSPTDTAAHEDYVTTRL
In words: calcium entry via TRPC4 opening agents – cell-based, HEK293 TRPC4/mu-opioid, Fluo-4 calcium, dose response (AID 434937). The class given is functional.

Assay [13] has as its target Ephrin type-A receptor 4 (Mus musculus, UniProt Q03137). In words: EphA4 ligand-binding antagonists – biochemical, colorimetric, mouse EphA4, primary screen (AID 689). The class given is functional.
For assay [14], the target named is T4, NADPH oxidase 1 (Homo sapiens, UniProt Q9Y5S8).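 Note: Cell-based assay with luminescence read-out, IC50 derived from inhibitor dose-response curves; intracellular ROS from endogenous NOX1 in intact HT29 colon cancer cells; potency of inhibitors that lower the ROS luminescence signal.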
T4 sequence (Q9Y5S8 whole entry): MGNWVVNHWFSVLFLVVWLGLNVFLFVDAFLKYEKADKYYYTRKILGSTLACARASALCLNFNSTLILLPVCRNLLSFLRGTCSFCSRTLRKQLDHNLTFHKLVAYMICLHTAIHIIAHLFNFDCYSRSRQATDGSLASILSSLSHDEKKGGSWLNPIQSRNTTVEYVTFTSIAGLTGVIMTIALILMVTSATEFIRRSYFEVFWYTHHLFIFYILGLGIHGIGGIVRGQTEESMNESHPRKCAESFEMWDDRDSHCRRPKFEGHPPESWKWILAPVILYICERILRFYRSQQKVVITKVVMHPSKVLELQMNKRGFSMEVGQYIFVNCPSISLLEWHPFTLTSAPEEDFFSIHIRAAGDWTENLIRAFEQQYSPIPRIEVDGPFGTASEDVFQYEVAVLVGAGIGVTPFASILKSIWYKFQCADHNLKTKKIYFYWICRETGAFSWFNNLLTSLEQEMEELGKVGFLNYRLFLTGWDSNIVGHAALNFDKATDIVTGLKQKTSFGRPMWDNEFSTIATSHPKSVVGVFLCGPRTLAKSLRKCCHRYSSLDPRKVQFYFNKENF
In kind it is functional, cell-based.

In assay [15] the test system is H4. In words: Luminescence Cell-Based Dose Response HTS to Identify Activators of 5'UTR Stem-Loop Driven Prion Protein mRNA Translation in H4 Neuroglioblastoma Cells. [Related pubchem assays: 1829 (Project Summary), 1814 (Primary HTS)]. In kind it is functional. The settings on record: Homo sapiens.
Assay [16] is described as follows: Luminescence Cell-Based Dose Confirmation HTS to Identify Activators of 5'UTR Stem-Loop Driven Alpha-Synuclein mRNA Translation in H4 Neuroglioblastoma Cells. [Related pubchem assays: 1829 (Project Summary), 1814 (Primary HTS)]. In kind it is functional.
Assay [17] addresses T5, Protein skinhead-1 (Caenorhabditis elegans, UniProt P34707).
T5 sequence (P34707 whole entry): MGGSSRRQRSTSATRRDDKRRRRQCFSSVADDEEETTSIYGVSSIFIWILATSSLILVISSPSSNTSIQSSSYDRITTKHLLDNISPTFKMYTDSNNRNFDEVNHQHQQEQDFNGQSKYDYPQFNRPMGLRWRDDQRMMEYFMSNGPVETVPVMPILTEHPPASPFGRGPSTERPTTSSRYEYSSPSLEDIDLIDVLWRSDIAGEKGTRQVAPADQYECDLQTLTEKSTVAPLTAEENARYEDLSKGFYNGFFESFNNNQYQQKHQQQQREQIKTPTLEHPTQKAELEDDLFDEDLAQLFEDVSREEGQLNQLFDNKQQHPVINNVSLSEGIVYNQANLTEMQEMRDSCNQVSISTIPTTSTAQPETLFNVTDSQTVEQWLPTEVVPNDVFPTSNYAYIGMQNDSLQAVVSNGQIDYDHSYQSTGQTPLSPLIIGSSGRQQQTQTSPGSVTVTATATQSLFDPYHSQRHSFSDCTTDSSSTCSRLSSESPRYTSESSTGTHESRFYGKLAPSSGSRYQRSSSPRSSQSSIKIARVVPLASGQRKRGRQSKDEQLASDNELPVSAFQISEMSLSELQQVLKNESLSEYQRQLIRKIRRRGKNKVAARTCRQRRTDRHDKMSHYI
In kind it is functional.

In assay [18] the target is T6, Estrogen receptor beta (Homo sapiens, UniProt Q92731). In words: blockers of SRC-3 recruitment to ERβ – biochemical, ELISA, streptavidin-HRP readout, orthogonal assay, confirmation (AID 1060). (In general: ELISA stands for enzyme-linked immunosorbent assay.)
T6 sequence (Q92731 whole entry): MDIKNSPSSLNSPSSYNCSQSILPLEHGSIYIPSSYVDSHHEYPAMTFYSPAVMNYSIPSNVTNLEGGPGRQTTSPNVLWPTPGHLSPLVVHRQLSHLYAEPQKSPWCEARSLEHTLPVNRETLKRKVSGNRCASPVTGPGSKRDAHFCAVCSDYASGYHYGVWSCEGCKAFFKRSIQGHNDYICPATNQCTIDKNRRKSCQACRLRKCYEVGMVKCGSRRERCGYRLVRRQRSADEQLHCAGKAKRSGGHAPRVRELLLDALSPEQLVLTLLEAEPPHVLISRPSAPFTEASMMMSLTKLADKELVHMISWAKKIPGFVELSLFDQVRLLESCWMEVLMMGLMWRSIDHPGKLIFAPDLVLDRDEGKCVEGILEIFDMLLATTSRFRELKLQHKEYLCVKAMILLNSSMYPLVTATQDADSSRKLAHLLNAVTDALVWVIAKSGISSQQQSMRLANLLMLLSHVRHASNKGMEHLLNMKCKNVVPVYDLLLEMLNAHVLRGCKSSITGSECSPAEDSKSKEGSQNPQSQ
The target in assay [19] is T6, Estrogen receptor beta.

Activity calls are given as the source filed them.

Chain of Ephrin type-A receptor 4 (Q03137 whole entry): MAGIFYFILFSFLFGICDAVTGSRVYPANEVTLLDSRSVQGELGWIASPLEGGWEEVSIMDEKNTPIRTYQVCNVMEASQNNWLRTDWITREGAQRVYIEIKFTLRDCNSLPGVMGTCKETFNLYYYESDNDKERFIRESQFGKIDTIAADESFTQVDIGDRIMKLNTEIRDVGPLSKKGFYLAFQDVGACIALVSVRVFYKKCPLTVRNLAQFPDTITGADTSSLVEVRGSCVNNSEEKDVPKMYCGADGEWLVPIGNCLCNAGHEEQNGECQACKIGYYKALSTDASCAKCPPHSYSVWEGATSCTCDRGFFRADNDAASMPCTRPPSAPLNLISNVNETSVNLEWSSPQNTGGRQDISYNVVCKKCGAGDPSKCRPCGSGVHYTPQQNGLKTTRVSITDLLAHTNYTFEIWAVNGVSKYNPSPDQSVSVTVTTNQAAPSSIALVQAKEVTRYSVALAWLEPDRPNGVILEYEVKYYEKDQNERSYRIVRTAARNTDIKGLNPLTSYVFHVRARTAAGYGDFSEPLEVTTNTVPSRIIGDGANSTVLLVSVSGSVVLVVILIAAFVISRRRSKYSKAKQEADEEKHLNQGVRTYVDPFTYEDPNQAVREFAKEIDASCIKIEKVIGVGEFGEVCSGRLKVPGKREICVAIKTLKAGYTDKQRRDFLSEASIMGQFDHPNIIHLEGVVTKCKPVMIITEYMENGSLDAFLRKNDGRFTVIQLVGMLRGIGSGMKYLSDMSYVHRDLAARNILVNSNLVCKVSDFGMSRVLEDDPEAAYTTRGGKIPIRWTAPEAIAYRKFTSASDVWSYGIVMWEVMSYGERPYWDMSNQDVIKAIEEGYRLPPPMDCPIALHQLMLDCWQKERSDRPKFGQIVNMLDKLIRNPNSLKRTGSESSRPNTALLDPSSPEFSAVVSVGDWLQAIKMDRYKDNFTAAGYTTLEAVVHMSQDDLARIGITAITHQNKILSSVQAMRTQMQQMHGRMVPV

The term EC50 denotes the concentration needed to bring the measured effect to its halfway point. As for `Cc1cc(=O)oc2cc(NC(=O)c3ccccc3Cl)ccc12`, the EC50 is 345 nM (active) in [1], < 100 nM (active) in assay [2], 208 nM (active) in assay [3] and 364 nM (active) in assay [4].

In general, AC50 refers to the concentration giving half of the maximal activity seen. With `CCCC(=O)NC1=C(N2CC2)C(=O)C(NC(=O)CCC)=C(N2CC2)C1=O`, the half-maximal activity concentration (AC50) in assay [5] was 6650 nM (active). The EC50 in [6] is > 167000 nM (inactive).

As for `Cc1nn(C(C)C)c(C)c1CN1CCCC(CCC(=O)NCc2ccccc2F)C1` (centres undefined), the EC50 is < 100 nM (active) in assay [7], < 4 nM (active) in assay [8] and > 60000 nM (not active) in assay [9].

Broadly, the IC50 is the concentration that gives 50% inhibition. For the compound `CC(C)n1cnc2c(N(C)c3ccccc3)nc(N(CCN(C)C)Cc3ccccc3)nc21`, in assay [10], the IC50 is > 20000 nM (inactive). In addition, the EC50 in assay [11] is 19300 nM (not active); in [12] it was 10600 nM (active).

Take `O=[N+]([O-])c1ccc(N2N=C(c3ccco3)CC2c2ccccc2)cc1` (centres undefined): the IC50 in assay [13] was > 100000 nM (not active).

On to `O=[N+]([O-])c1ccc2c(c1)Sc1ccc(C(F)(F)F)cc1N2`, for which the 50% inhibitory concentration (IC50) in assay [14] was 1410 nM (active).

Consider `COc1ccc(/C=N/NC(=O)c2ccc[nH]2)cc1`, for which the concentration giving a half-maximal response (EC50) is 460 nM (active) in assay [1]; 114 nM (active) in assay [2]; < 100 nM (active) in [15]; 343 nM (active) in [3]; 155 nM (active) in assay [16]; 324 nM (active) in assay [4].

Turning to `Nc1c(C(=O)Nc2ccc(F)cc2)sc2nc(-c3ccco3)ccc12`, the IC50 in [17] was > 100000 nM (inactive); in assay [18], > 50000 nM (not active); in assay [19], > 50000 nM (not active).

With `O=C(CCC1CCCN(Cc2cccc3c2OCO3)C1)NCc1ccc(F)c(F)c1` (centres undefined), the half-maximal effective concentration (EC50) is < 100 nM (active) in [7], 216 nM (active) in [8] and > 60000 nM (not active) in [9].

For `COc1ccc(C2CC(=O)Nc3ccccc3S2(=O)=O)cc1OC` (centres undefined), the IC50 was < 23 nM (not active) in assay [18] and 16100 nM (active) in assay [19].

For `Cc1c(NC(=S)N/N=C/c2cccc(O)c2)c(=O)n(-c2ccccc2)n1C`, the half-inhibitory concentration (IC50) in assay [13] was 39500 nM (active).
